Data: ChEMBL document CHEMBL4177594, “Design, synthesis, and evaluation of salicyladimine derivatives as multitarget-directed ligands against Alzheimer's disease” (Bioorg Med Chem, 2017)
Calls of active or inactive are those of the source. The rule behind the calls is not given here.

Experiments:
PC-12 [1] = test: Neuroprotective activity against H2O2-induced apoptosis in rat PC12 cells assessed as viable cells level at 25 uM after 24 hrs by Annexin V/FITC/propidium iodide staining-based flow cytometry (reference value: 96.2%); assay type: functional
[2] = Metal chelating activity assessed as compound-Cu2+ complex formation after 30 mins by UV-Vis spectrophotometry based Job's plot
PC-12 [3] = test: Neuroprotective activity against H2O2-induced apoptosis in rat PC12 cells assessed as late apoptosis cells level at 50 uM after 24 hrs by Annexin V/FITC/propidium iodide staining-based flow cytometry (reference value: 1.9%); assay type: functional
PC-12 [4] = test: Antioxidant activity against H2O2-induced oxidative stress in rat PC12 cells assessed as reduction in intracellular ROS levels after 48 hrs by DCFH-DA staining based flow cytometry; assay type: functional, cell-based
PC-12 [5] = test: Neuroprotective activity against H2O2-induced apoptosis in rat PC12 cells assessed as apoptotic cells at 50 uM after 24 hrs by Annexin V/FITC/propidium iodide staining-based flow cytometry (reference value: 52.3%); assay type: functional
PC-12 [6] = test: Neuroprotective activity against H2O2-induced apoptosis in rat PC12 cells assessed as necrosis cells level at 50 uM after 24 hrs by Annexin V/FITC/propidium iodide staining-based flow cytometry (reference value: 0.1%); assay type: functional
PC-12 [7] = test: Neuroprotective activity against H2O2-induced apoptosis in rat PC12 cells assessed as late apoptosis cells level at 6.25 uM after 24 hrs by Annexin V/FITC/propidium iodide staining-based flow cytometry (reference value: 1.9%); assay type: functional
[8] = Metal chelating activity assessed as compound-Fe2+ complex formation after 30 mins by UV-Vis spectrophotometry based Job's plot
[9] = molecular target: Amyloid-beta precursor protein (Homo sapiens) (UniProt P05067); test: Inhibition of self-induced aggregation of amyloid beta (1 to 42 residues) (unknown origin) at 25 uM incubated for 48 hrs by Thioflavin T fluorescence assay relative to control
Chain of Amyloid-beta precursor protein (Homo sapiens) (P05067 whole entry, the tested form may be a part): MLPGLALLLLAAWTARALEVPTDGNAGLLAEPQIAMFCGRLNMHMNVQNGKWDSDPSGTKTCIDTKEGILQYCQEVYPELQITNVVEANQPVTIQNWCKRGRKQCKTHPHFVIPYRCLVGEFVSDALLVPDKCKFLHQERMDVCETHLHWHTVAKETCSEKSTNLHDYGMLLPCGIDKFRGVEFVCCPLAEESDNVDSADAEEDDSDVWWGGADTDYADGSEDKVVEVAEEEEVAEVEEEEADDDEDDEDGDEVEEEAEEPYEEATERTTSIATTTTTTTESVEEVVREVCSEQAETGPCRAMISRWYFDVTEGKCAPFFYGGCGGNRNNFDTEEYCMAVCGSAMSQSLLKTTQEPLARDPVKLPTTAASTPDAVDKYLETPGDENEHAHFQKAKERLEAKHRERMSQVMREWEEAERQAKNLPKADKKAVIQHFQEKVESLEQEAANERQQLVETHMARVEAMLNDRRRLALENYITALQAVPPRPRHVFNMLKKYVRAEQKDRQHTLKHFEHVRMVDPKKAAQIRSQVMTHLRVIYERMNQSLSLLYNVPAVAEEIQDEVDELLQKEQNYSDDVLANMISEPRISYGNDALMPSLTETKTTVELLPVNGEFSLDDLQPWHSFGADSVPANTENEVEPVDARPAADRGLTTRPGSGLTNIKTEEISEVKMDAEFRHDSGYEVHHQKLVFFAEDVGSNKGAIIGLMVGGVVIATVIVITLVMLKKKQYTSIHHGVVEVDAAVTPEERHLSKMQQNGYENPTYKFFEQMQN

PC-12 [10] = test: Neuroprotective activity against H2O2-induced apoptosis in rat PC12 cells assessed as early apoptosis cells level at 25 uM after 24 hrs by Annexin V/FITC/propidium iodide staining-based flow cytometry (reference value: 1.8%); assay type: functional
PC-12 [11] = test: Neuroprotective activity against H2O2-induced apoptosis in rat PC12 cells assessed as viable cells level at 6.25 uM after 24 hrs by Annexin V/FITC/propidium iodide staining-based flow cytometry (reference value: 96.2%); assay type: functional
BV-2 = test: Neuroprotective activity against LPS-induced inflammation in mouse BV2 cells assessed as inhibition of LPS-induced NO production at 10 to 25 uM after 24 hrs in presence of LPS by Griess reaction based assay relative to resveratrol; assay type: functional, cell-based
PC-12 [12] = test: Neuroprotective activity against H2O2-induced apoptosis in rat PC12 cells assessed as early apoptosis cells level at 6.25 uM after 24 hrs by Annexin V/FITC/propidium iodide staining-based flow cytometry (reference value: 1.8%); assay type: functional
Homo sapiens = organism: Homo sapiens; test: Selectivity index, ratio of IC50 for human MAO-A to IC50 for human MAO-B
[13] = molecular target: T1, Amine oxidase [flavin-containing] B (Homo sapiens, UniProt P27338); test: Inhibition of human MAO-B using p-tyramine as substrate preincubated for 15 mins followed by substrate addition measured after 20 mins by fluorescence-based Amplex Red MAO assay
T1 sequence (P27338 whole entry): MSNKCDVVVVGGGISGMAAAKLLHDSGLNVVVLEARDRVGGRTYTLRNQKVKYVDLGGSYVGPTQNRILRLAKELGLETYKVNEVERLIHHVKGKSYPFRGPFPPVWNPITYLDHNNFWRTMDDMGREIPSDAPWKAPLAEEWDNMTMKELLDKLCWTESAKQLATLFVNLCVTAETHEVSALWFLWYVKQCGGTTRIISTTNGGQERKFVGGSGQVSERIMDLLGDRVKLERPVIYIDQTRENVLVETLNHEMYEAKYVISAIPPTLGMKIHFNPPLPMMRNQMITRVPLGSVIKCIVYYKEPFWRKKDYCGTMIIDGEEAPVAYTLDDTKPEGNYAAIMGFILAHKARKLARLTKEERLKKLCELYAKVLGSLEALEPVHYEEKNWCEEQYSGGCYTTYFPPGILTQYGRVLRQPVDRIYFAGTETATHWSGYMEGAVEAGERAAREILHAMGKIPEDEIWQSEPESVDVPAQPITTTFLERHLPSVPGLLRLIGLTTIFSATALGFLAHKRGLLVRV

PC-12 [14] = test: Neuroprotective activity against H2O2-induced apoptosis in rat PC12 cells assessed as late apoptosis cells level at 12.5 uM after 24 hrs by Annexin V/FITC/propidium iodide staining-based flow cytometry (reference value: 1.9%); assay type: functional
PC-12 [15] = test: Neuroprotective activity against 6-OHDA-induced toxicity in rat PC12 cells assessed as increase in cell viability at 10 to 25 uM pretreated for 24 hrs followed by 6-OHDA challenge measured after 24 hrs by MTT assay; assay type: functional
PC-12 [16] = test: Neuroprotective activity against H2O2-induced apoptosis in rat PC12 cells assessed as apoptotic cells at 25 uM after 24 hrs by Annexin V/FITC/propidium iodide staining-based flow cytometry (reference value: 52.3%); assay type: functional
PC-12 [17] = test: Neuroprotective activity against H2O2-induced apoptosis in rat PC12 cells assessed as early apoptosis cells level at 50 uM after 24 hrs by Annexin V/FITC/propidium iodide staining-based flow cytometry (reference value: 1.8%); assay type: functional
PC-12 [18] = test: Neuroprotective activity against H2O2-induced apoptosis in rat PC12 cells assessed as necrosis cells level at 6.25 uM after 24 hrs by Annexin V/FITC/propidium iodide staining-based flow cytometry (reference value: 0.1%); assay type: functional
[19] = Antioxidant activity assessed as DPPH radical scavenging activity after 30 mins; assay type: functional
PC-12 [20] = test: Neuroprotective activity against H2O2-induced apoptosis in rat PC12 cells assessed as necrosis cells level at 12.5 uM after 24 hrs by Annexin V/FITC/propidium iodide staining-based flow cytometry (reference value: 0.1%); assay type: functional
PC-12 [21] = test: Neuroprotective activity against H2O2-induced apoptosis in rat PC12 cells assessed as apoptotic cells at 6.25 uM after 24 hrs by Annexin V/FITC/propidium iodide staining-based flow cytometry (reference value: 52.3%); assay type: functional
PC-12 [22] = test: Neuroprotective activity against H2O2-induced apoptosis in rat PC12 cells assessed as necrosis cells level at 25 uM after 24 hrs by Annexin V/FITC/propidium iodide staining-based flow cytometry (reference value: 0.1%); assay type: functional
PC-12 [23] = test: Cytotoxicity against rat PC12 cells at 25 uM after 24 hrs by MTT assay; assay type: cell-based; conditions: pc-12, 24 h
PC-12 [24] = test: Neuroprotective activity against H2O2-induced apoptosis in rat PC12 cells assessed as early apoptosis cells level at 12.5 uM after 24 hrs by Annexin V/FITC/propidium iodide staining-based flow cytometry (reference value: 1.8%); assay type: functional
PC-12 [25] = test: Neuroprotective activity against H2O2-induced apoptosis in rat PC12 cells assessed as late apoptosis cells level at 25 uM after 24 hrs by Annexin V/FITC/propidium iodide staining-based flow cytometry (reference value: 1.9%); assay type: functional
PC-12 [26] = test: Neuroprotective activity against H2O2-induced apoptosis in rat PC12 cells assessed as viable cells level at 12.5 uM after 24 hrs by Annexin V/FITC/propidium iodide staining-based flow cytometry (reference value: 96.2%); assay type: functional

Compound: Oc1ccc(/C=N/c2ccc(OCc3ccccc3)cc2)c(O)c1O
- Activity (PC-12 [1]): 87.7%
- log K [2]: 8.01
- Activity (PC-12 [3]): 2.3%
- Activity (PC-12 [4]): Dose-dependent effect
- Activity (PC-12 [5]): 6.1%
- Activity (PC-12 [6]): 3%
- Activity (PC-12 [7]): 11.9%
- log K [8]: 6.3
- inhibition [9]: 91.3%
- Activity (PC-12 [10]): 8.5%
- Activity (PC-12 [11]): 60.6%
- Activity (BV-2): Active
- Activity (PC-12 [12]): 26.7%
- Ratio IC50 (Homo sapiens): > 57.8
- IC50 [13]: 1.73 µM
- Activity (PC-12 [14]): 4.2%
- Activity (PC-12 [15]): 65.9 - 75.4%
- Activity (PC-12 [16]): 11.2%
- Activity (PC-12 [17]): 3.7%
- Activity (PC-12 [18]): 0.8%
- IC50 [19]: 43.4 µM
- Activity (PC-12 [20]): 0.4%
- Activity (PC-12 [21]): 38.6%
- Activity (PC-12 [22]): 1.1%
- Activity (PC-12 [23]): Non-Toxic
- Activity (PC-12 [24]): 25.7%
- Activity (PC-12 [25]): 2.7%
- Activity (PC-12 [26]): 69.8%
